#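 How tested: cells in 96-well plates exposed to compound for 48 hours at five concentrations. GI50 marks 50% less growth. The concentration for full growth arrest is given as TGI.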
# Columns and labels:
# Test in all cases: NCI-60 cell line screen, 48 h
# 786-0 renal = test system: 786-0 renal
# A498 renal = test system: A498 renal
# A549 NSCLC = test system: A549 NSCLC
# ACHN renal = test system: ACHN renal
# BT-549 breast = test system: BT-549 breast
# CAKI-1 renal = test system: CAKI-1 renal
# CCRF-CEM leukemia = test system: CCRF-CEM leukemia
# COLO 205 colon = test system: COLO 205 colon
# DU-145 prostate = test system: DU-145 prostate
# EKVX NSCLC = test system: EKVX NSCLC
# HCC-2998 colon = test system: HCC-2998 colon
# HCT-116 colon = test system: HCT-116 colon
# HCT-15 colon = test system: HCT-15 colon
# HL-60(TB) leukemia = test system: HL-60(TB) leukemia
# HOP-62 NSCLC = test system: HOP-62 NSCLC
# HOP-92 NSCLC = test system: HOP-92 NSCLC
# HS 578T breast = test system: HS 578T breast
# HT29 colon = test system: HT29 colon
# IGROV1 ovarian = test system: IGROV1 ovarian
# K-562 leukemia = test system: K-562 leukemia
# KM12 colon = test system: KM12 colon
# LOX IMVI melanoma = test system: LOX IMVI melanoma
# M14 melanoma = test system: M14 melanoma
# MALME-3M melanoma = test system: MALME-3M melanoma
# MCF7 breast = test system: MCF7 breast
# MDA-MB-231 breast = test system: MDA-MB-231 breast
# MDA-MB-435 = test system: MDA-MB-435
# MDA-MB-468 breast = test system: MDA-MB-468 breast
# MOLT-4 leukemia = test system: MOLT-4 leukemia
# NCI-H226 lung = test system: NCI-H226 lung
# NCI-H23 lung = test system: NCI-H23 lung
# NCI-H460 lung = test system: NCI-H460 lung
# NCI-H522 lung = test system: NCI-H522 lung
# NCI/ADR-RES ovarian = test system: NCI/ADR-RES ovarian
# OVCAR-3 ovarian = test system: OVCAR-3 ovarian
# OVCAR-4 ovarian = test system: OVCAR-4 ovarian
# OVCAR-5 ovarian = test system: OVCAR-5 ovarian
# OVCAR-8 ovarian = test system: OVCAR-8 ovarian
# PC-3 prostate = test system: PC-3 prostate
# RPMI-8226 leukemia = test system: RPMI-8226 leukemia
# RXF 393 renal = test system: RXF 393 renal
# SF-268 CNS = test system: SF-268 CNS
# SF-295 CNS = test system: SF-295 CNS
# SF-539 CNS = test system: SF-539 CNS
# SK-MEL-2 melanoma = test system: SK-MEL-2 melanoma
# SK-MEL-28 melanoma = test system: SK-MEL-28 melanoma
# SK-MEL-5 melanoma = test system: SK-MEL-5 melanoma
# SK-OV-3 ovarian = test system: SK-OV-3 ovarian
# SN12C renal = test system: SN12C renal
# SNB-19 CNS = test system: SNB-19 CNS
# SNB-75 CNS = test system: SNB-75 CNS
# SR leukemia = test system: SR leukemia
# SW-620 colon = test system: SW-620 colon
# T-47D breast = test system: T-47D breast
# TK-10 renal = test system: TK-10 renal
# U251 CNS = test system: U251 CNS
# UACC-257 melanoma = test system: UACC-257 melanoma
# UACC-62 melanoma = test system: UACC-62 melanoma
# UO-31 renal = test system: UO-31 renal
smiles,measurement,setting,value
COc1cc2c(c(OC)c1OC)C(=O)CC(c1cccc(NC(=O)c3cccc([N+](=O)[O-])c3)c1)O2 (stereo not drawn),GI50,786-0 renal,47.9 µM
same,TGI,786-0 renal,> 100 µM
same,GI50,A498 renal,67.4 µM
same,TGI,A498 renal,> 100 µM
same,GI50,A549 NSCLC,21.7 µM
same,TGI,A549 NSCLC,> 100 µM
same,GI50,ACHN renal,21.5 µM
same,TGI,ACHN renal,> 100 µM
same,GI50,BT-549 breast,5 µM
same,TGI,BT-549 breast,57.7 µM
same,GI50,CAKI-1 renal,6.66 µM
same,TGI,CAKI-1 renal,> 100 µM
same,GI50,CCRF-CEM leukemia,3.44 µM
same,TGI,CCRF-CEM leukemia,> 100 µM
same,GI50,COLO 205 colon,28 µM
same,TGI,COLO 205 colon,> 100 µM
same,GI50,DU-145 prostate,21.5 µM
same,TGI,DU-145 prostate,> 100 µM
same,GI50,EKVX NSCLC,> 100 µM
same,TGI,EKVX NSCLC,> 100 µM
same,GI50,HCC-2998 colon,55.1 µM
same,TGI,HCC-2998 colon,> 100 µM
same,GI50,HCT-116 colon,9.24 µM
same,TGI,HCT-116 colon,> 100 µM
same,GI50,HCT-15 colon,6.57 µM
same,TGI,HCT-15 colon,> 100 µM
same,GI50,HL-60(TB) leukemia,3.84 µM
same,TGI,HL-60(TB) leukemia,29.1 µM
same,GI50,HOP-62 NSCLC,98.7 µM
same,TGI,HOP-62 NSCLC,> 100 µM
same,GI50,HOP-92 NSCLC,4.29 µM
same,TGI,HOP-92 NSCLC,> 100 µM
same,GI50,HS 578T breast,7.29 µM
same,TGI,HS 578T breast,> 100 µM
same,GI50,HT29 colon,26.8 µM
same,TGI,HT29 colon,> 100 µM
same,GI50,IGROV1 ovarian,18.6 µM
same,TGI,IGROV1 ovarian,> 100 µM
same,GI50,K-562 leukemia,6.03 µM
same,TGI,K-562 leukemia,> 100 µM
same,GI50,KM12 colon,3.39 µM
same,TGI,KM12 colon,> 100 µM
same,GI50,LOX IMVI melanoma,13.9 µM
same,TGI,LOX IMVI melanoma,> 100 µM
same,GI50,M14 melanoma,19.2 µM
same,TGI,M14 melanoma,> 100 µM
same,GI50,MALME-3M melanoma,10.1 µM
same,TGI,MALME-3M melanoma,> 100 µM
same,GI50,MCF7 breast,6.99 µM
same,TGI,MCF7 breast,> 100 µM
same,GI50,MDA-MB-231 breast,18.8 µM
same,TGI,MDA-MB-231 breast,> 100 µM
same,GI50,MDA-MB-435,4.3 µM
same,TGI,MDA-MB-435,21.5 µM
same,GI50,MDA-MB-468 breast,2.07 µM
same,TGI,MDA-MB-468 breast,8.94 µM
same,GI50,MOLT-4 leukemia,3.93 µM
same,TGI,MOLT-4 leukemia,> 100 µM
same,GI50,NCI-H226 lung,5.77 µM
same,TGI,NCI-H226 lung,> 100 µM
same,GI50,NCI-H23 lung,32.8 µM
same,TGI,NCI-H23 lung,> 100 µM
same,GI50,NCI-H460 lung,17.2 µM
same,TGI,NCI-H460 lung,> 100 µM
same,GI50,NCI-H522 lung,4.65 µM
same,TGI,NCI-H522 lung,49.8 µM
same,GI50,NCI/ADR-RES ovarian,4.88 µM
same,TGI,NCI/ADR-RES ovarian,> 100 µM
same,GI50,OVCAR-3 ovarian,9.49 µM
same,TGI,OVCAR-3 ovarian,> 100 µM
same,GI50,OVCAR-4 ovarian,7.98 µM
same,TGI,OVCAR-4 ovarian,> 100 µM
same,GI50,OVCAR-5 ovarian,74.6 µM
same,TGI,OVCAR-5 ovarian,> 100 µM
same,GI50,OVCAR-8 ovarian,4.62 µM
same,TGI,OVCAR-8 ovarian,> 100 µM
same,GI50,PC-3 prostate,4.66 µM
same,TGI,PC-3 prostate,> 100 µM
same,GI50,RPMI-8226 leukemia,3.24 µM
same,TGI,RPMI-8226 leukemia,48.6 µM
same,GI50,RXF 393 renal,3.62 µM
same,TGI,RXF 393 renal,> 100 µM
same,GI50,SF-268 CNS,18.5 µM
same,TGI,SF-268 CNS,> 100 µM
same,GI50,SF-295 CNS,18.7 µM
same,TGI,SF-295 CNS,> 100 µM
same,GI50,SF-539 CNS,29.3 µM
same,TGI,SF-539 CNS,> 100 µM
same,GI50,SK-MEL-2 melanoma,7.49 µM
same,TGI,SK-MEL-2 melanoma,48.8 µM
same,GI50,SK-MEL-28 melanoma,35.2 µM
same,TGI,SK-MEL-28 melanoma,> 100 µM
same,GI50,SK-MEL-5 melanoma,6.3 µM
same,TGI,SK-MEL-5 melanoma,46.7 µM
same,GI50,SK-OV-3 ovarian,> 100 µM
same,TGI,SK-OV-3 ovarian,> 100 µM
same,GI50,SN12C renal,11.2 µM
same,TGI,SN12C renal,> 100 µM
same,GI50,SNB-19 CNS,36.9 µM
same,TGI,SNB-19 CNS,> 100 µM
same,GI50,SNB-75 CNS,7.73 µM
same,TGI,SNB-75 CNS,> 100 µM
same,GI50,SR leukemia,3.15 µM
same,TGI,SR leukemia,> 100 µM
same,GI50,SW-620 colon,10.9 µM
same,TGI,SW-620 colon,> 100 µM
same,GI50,T-47D breast,3.74 µM
same,TGI,T-47D breast,> 100 µM
same,GI50,TK-10 renal,51.6 µM
same,TGI,TK-10 renal,> 100 µM
same,GI50,U251 CNS,20.1 µM
same,TGI,U251 CNS,> 100 µM
same,GI50,UACC-257 melanoma,19.5 µM
same,TGI,UACC-257 melanoma,> 100 µM
same,GI50,UACC-62 melanoma,4.07 µM
same,TGI,UACC-62 melanoma,65.4 µM
same,GI50,UO-31 renal,4.79 µM
same,TGI,UO-31 renal,> 100 µM

# Reference: PubChem BioAssay (NCI)
